Reference: PubChem BioAssay (NCI)
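Where inhibition never reached the appropriate level, the endpoint shown equals the highest concentration tested. Otherwise, values were interpolated linearly from a five-concentration, 48-hour dose response in 96-well plates. The concentration for 50% growth inhibition is given as GI50. TGI: concentration producing complete growth inhibition.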

Tests used:
Assay in all cases: NCI tumour cell line growth inhibition, 48 h
COLO 205 colon = tested on: COLO 205 colon
NCI-H460 lung = tested on: NCI-H460 lung
RXF 393 renal = tested on: RXF 393 renal
SF-295 CNS = tested on: SF-295 CNS
OVCAR-8 ovarian = tested on: OVCAR-8 ovarian
MALME-3M melanoma = tested on: MALME-3M melanoma
UO-31 renal = tested on: UO-31 renal
M14 melanoma = tested on: M14 melanoma
SN12C renal = tested on: SN12C renal
SK-MEL-2 melanoma = tested on: SK-MEL-2 melanoma

Compound | GI50 (COLO 205 colon) [µM] | TGI (COLO 205 colon) [µM] | GI50 (NCI-H460 lung) [µM] | TGI (NCI-H460 lung) [µM] | GI50 (RXF 393 renal) [µM] | TGI (RXF 393 renal) [µM] | GI50 (SF-295 CNS) [µM] | TGI (SF-295 CNS) [µM] | GI50 (OVCAR-8 ovarian) [µM] | TGI (OVCAR-8 ovarian) [µM] | GI50 (MALME-3M melanoma) [µM] | TGI (MALME-3M melanoma) [µM] | GI50 (UO-31 renal) [µM] | TGI (UO-31 renal) [µM] | GI50 (M14 melanoma) [µM] | TGI (M14 melanoma) [µM] | GI50 (SN12C renal) [µM] | TGI (SN12C renal) [µM] | GI50 (SK-MEL-2 melanoma) [µM] | TGI (SK-MEL-2 melanoma) [µM]
CCCCCCCCCCCCCCCCCCNC(=O)[C@H]1CSC(c2ccc(OC)c(F)c2)N1 (stereo not given in full) | > 39.1 | > 60.5 | 0.606 | 2.02 | 2.34 | 5.5 | 26 | > 52.2 | 2.56 | 11.4 | > 26.2 | > 45.5 | > 32.8 | > 48.4 | 1.43 | 3.5 | 1.52 | 3.39 | 2.27 | 5.48
O=[N+]([O-])c1ccc(N/N=C\c2cc(Cl)ccc2O)nc1 | 5.06 | > 100 | 1.66 | 13.6 | 5.66 | 38.8 | 2.15 | 11.7 | 0.97 | 14.1 | 2.68 | 20.5 | 0.3 | 5.45 | 1.19 | 7.27 | 2.99 | > 100 | 3.24 | 29.4
Cc1cc(C)nc(NS(=O)(=O)c2ccc(Nc3c4ccccc4nc4c(C(=O)Nc5ccc(S(N)(=O)=O)cc5)cccc34)cc2)n1 | – | > 100 | – | > 100 | – | > 100 | – | > 100 | – | > 100 | – | > 100 | – | > 100 | – | > 100 | – | > 100 | – | > 100
COC1C=C(Nc2cccc(Cl)c2)C(=O)C1 (stereo not given) | – | 22.1 | – | > 100 | – | 92.9 | – | > 100 | – | > 100 | – | > 100 | – | > 100 | – | > 100 | – | > 100 | – | > 100
NC(N)=NS(=O)(=O)c1ccc(NC(=O)c2cccc3c(Nc4ccc(S(=O)(=O)N=C(N)N)cc4)c4ccc(Cl)cc4nc23)cc1 | – | > 100 | – | > 100 | – | > 100 | – | > 100 | – | > 100 | – | > 100 | – | > 100 | – | > 100 | – | > 100 | – | > 100
CC(=O)c1ccc(Nc2cc(-n3ccnc3)nc3ccccc23)cc1 | > 100 | > 100 | 34.2 | > 100 | 26 | 76.8 | 2.8 | 9.53 | 50.5 | > 100 | 15.4 | 56.5 | 66.7 | > 100 | 8.15 | 52 | 45.8 | > 100 | > 100 | > 100
O=C1/C(=C\c2ccc(Cl)cc2)CN(C(=S)Nc2ccccc2)C/C1=C\c1ccc(Cl)cc1 | 0.507 | 1.84 | 0.471 | 2.15 | 0.397 | 1.13 | 0.389 | 1.73 | 0.527 | > 47.9 | 2.22 | 4.86 | 1.21 | 2.56 | 1.7 | 4.2 | 0.544 | 1.89 | 2.57 | 5.8
CCOC(=O)c1cnc(SCc2ccc(Cl)c(Cl)c2)nc1N1CC1 | 2.9 | 13.2 | 2.88 | 7.66 | 4.04 | 16.2 | 2.43 | 8.99 | 3.6 | 30.2 | 3.33 | 14.8 | 1.87 | 7.63 | 2.89 | 11.7 | 4.37 | 21.2 | 3.26 | 11.1
O/N=C1\CCc2cc(-c3nc(C4CCNCC4)[nH]c3-c3ccncc3)ccc21 | 2.78 | > 25 | > 25 | > 25 | > 25 | > 25 | > 25 | > 25 | > 25 | > 25 | 3.02 | 12.3 | > 25 | > 25 | 7.57 | > 25 | > 25 | > 25 | 16 | > 25
CNC(=O)OCc1nc(SC(C)C)n(C)c1COC(=O)NC | – | > 100 | – | > 100 | – | > 100 | – | > 100 | – | > 100 | – | > 100 | – | > 100 | – | > 100 | – | > 100 | – | > 100
CC1=C(C(=O)Nc2ccc([N+](=O)[O-])cc2)C(c2ccco2)C(C(=O)Nc2ccc([N+](=O)[O-])cc2)=C(C)N1 | – | 51.1 | – | > 100 | – | 60.3 | – | > 100 | – | > 100 | – | 55.1 | – | 60.1 | – | > 100 | – | > 100 | – | 28
N#C/C(=C\c1c(-c2ccccc2)[nH]c2ccccc12)C(=O)c1ccc(Cl)cc1 | 0.814 | 5.43 | 1.02 | 11.6 | 19.5 | > 100 | 2.18 | 16.4 | 6.16 | > 47.9 | 3.61 | 30.2 | 5.85 | 36.3 | 0.725 | > 100 | 6.91 | > 78.7 | 7.09 | > 39.3
Nc1cccc2c1C(=O)N(C1CCC(=O)NC1=O)C2=O (stereo not given) | > 100 | > 100 | > 100 | > 100 | > 100 | > 100 | > 100 | > 100 | > 100 | > 100 | > 100 | > 100 | > 100 | > 100 | > 100 | > 100 | > 100 | > 100 | > 100 | > 100
O=C(Cc1ccccc1)NN1C(=O)C(Cl)C1c1cccc(O)c1 (stereo not given) | – | 32.9 | – | 36.4 | – | 32.3 | – | 40.4 | – | 35.1 | – | 76.3 | – | 29.4 | – | 31.4 | – | 33.4 | – | 59.5
Cc1cc2c(C)c3cc(C)c(N)cc3nc2cc1N | 0.581 | 3.31 | 0.332 | 1.34 | 1.16 | 4.42 | 0.909 | 4.87 | 0.499 | 7.54 | 1.72 | 6.31 | 2.02 | 8.79 | 1.83 | 6.69 | 0.987 | 9.71 | 1.3 | 3.85
COc1cc2c(cc1OC)C(=O)C(Br)CC2 (stereo not given) | 2.03 | 3.72 | 4.27 | 16.9 | 1.55 | 3.01 | 14.3 | 28.4 | 3.28 | 11.7 | 3.31 | 8.18 | 2.38 | 6.77 | 2.72 | 7.1 | 3.49 | 12.8 | 3.6 | 9.98
O=C1c2ccccc2-c2c1c1ccccc1c(=O)n2CCO | – | > 100 | – | 11.3 | – | > 100 | – | > 96.3 | – | > 100 | – | > 100 | – | > 81 | – | > 100 | – | > 100 | – | 87.2
COc1cc(C(=O)O)c([N+](=O)[O-])c(OC)c1OC | – | > 100 | – | > 100 | – | > 100 | – | > 100 | – | > 100 | – | > 100 | – | > 100 | – | > 100 | – | > 100 | – | > 100
NC(N)=NC(CC(=O)O)c1ccccc1 (stereo not given) | – | > 100 | – | > 100 | – | > 100 | – | > 100 | – | > 100 | – | > 100 | – | > 100 | – | > 100 | – | > 100 | – | > 100
C1=CN2C[n+]3cccc(OCc4ccccc4)c3N=C2C(OCc2ccccc2)=C1 | – | 18 | – | > 100 | – | > 100 | – | 50 | – | > 100 | – | 30.6 | – | > 100 | – | 56.4 | – | 25.3 | – | 33.3
CC1=C(C(=O)Nc2ccccc2)C(c2ccc3c(c2)OCO3)C(C(=O)Nc2ccccc2)=C(C)N1 | – | > 100 | – | > 100 | – | 50.2 | – | > 100 | – | > 100 | – | > 100 | – | > 100 | – | > 100 | – | > 100 | – | 74.5
COc1ccc(/C(=C/c2cc(OC)c(OC)c(OC)c2)[N+](=O)[O-])cc1 | 1.79 | 3.74 | 2.24 | 5.23 | 1.73 | 3.32 | 2.09 | 5.34 | 2.67 | 8.12 | 1.68 | 3.71 | 1.3 | 2.62 | 1.79 | 3.72 | 1.6 | 3.24 | 2.04 | 4.92
